In patent US10759768B2, “Prophylactic or therapeutic agent for autism spectrum disorder” (priority 2016, dated 2020):
Entries after “also recorded” stand apart in the source; their conditions may differ.

Tested on: rat valproic acid-exposed autism model
Assay: Sociability test (3 chamber) in rat embryonic valproic acid-exposed autism model
Format: in vivo
Details: compound A 0.2 or 1 mg/kg orally once a day for 14 days from 3 weeks of age; male Sprague-Dawley offspring exposed to VPA 500 mg/kg i.p.; test at 5 weeks of age; FIG. 1
Procedure: Rat embryonic valproic acid-exposed autism model was used for the test. Sodium valproate (VPA) 500 mg/kg (mpk) was intraperitoneally administered to Sprague-Dawley pregnant rats on the 12.5th day in the embryonic stage. The offspring was weaned on the 21st day after birth, and only the male rat was used for the experiment. Compound A (0.2 or 1 mg/kg) was orally administered once a day at 18 o'clock for 14 days from 3 weeks of age after weaning and a behavioral test was conducted at 5 weeks of age. As unknown rat (Stranger rat), a purchased male rat of the same strain and the same week of age was used with no contact with the rat to be tested (test rat) until the day of the test.
In the experiment, a black plastic 3 chamber experimental apparatus (90×60×34 cm, each chamber 30×60×34 cm) was used. […]
On the day of the test, the rats to be tested and unknown rats were acclimated to the test environment for 1 hour or more and then the test was started. […] The sniffing to each cylinder (action of sniffing an object or an animal) was visually measured for 10 min. A sniffing index, which is an indicator of interest to other animal, was calculated by the following formula based on the sniffing time to each cylinder for 10 min. […]

SMILES: CC(=O)NCC[C@@H]1CCc2ccc3nc(C)oc3c21 [compound A, (S)—N-[2-(2-methyl-7,8-dihydro-6H-indeno[5,4-d][1,3]oxazol-8-yl)ethyl]acetamide]
- effect on social disorder / social performance (Sniffing index, Sniffing time to object): significant (# P≤0.025) improvement effect on social performance; also recorded: showed effectiveness on the social disorder
